Source: patent US20230021957A1, “USE OF PSILOCIN, […] ANALOGS THEREOF IN WEIGHT LOSS, TREATMENT OF OBESITY AND COMPULSIVE EATING DISORDER” (NEONMIND BIOSCIENCES INC., priority 2019, published 2023)

Key:
[1] = Weight gain of rats on a high calorie diet, once daily psilocybin for five days; assay type: in vivo, Sprague-Dawley rats; conditions: for total weight gain over the 5 day period: control 27.8
Experimental: In order to determine whether psilocybin has anorectic—and therefore weight loss—properties, a preclinical study of the drug was conducted, using a well-validated animal model. Rodent models of food consumption and weight gain have a strong homology with humans, as rodents are omnivores with a very similar metabolic physiology. […] The goal of the present study was to cause accelerated weight gain with a high calorie diet, consisting of a highly palatable food with a large proportion of fat and carbohydrate, compared to standard animal food, which is designed to maintain a healthy weight. We evaluated whether treatment with two different doses of psilocybin could reduce the accelerated weight gain caused by this diet.
Adult, male Sprague-Dawley rats were purchased from the animal supplier, and then housed in pairs in polycarbonate cages, with access to water and standard rat food ad libitum. Rats were given a period of time to acclimate to the animal colony. They were then all given unlimited access to a highly palatable diet that is very high in carbohydrate and fat (consisting predominantly of a hazelnut-flavored chocolate spread combined with peanut butter) that has been used routinely in multiple published studies with rats to study rapid weight gain (Hansen et al., Acta pharmacologica Sinica. 2012; 33(2):194-200). Animals were randomly assigned to one of three treatment groups, which consisted of once daily administration of either a lower dose (5 mg/kg; n=7 animals) of psilocybin, a higher dose (20 mg/kg; n=7 animals) of psilocybin, or no psilocybin (n=12 animals). The psilocybin was supplied by the Katz Group at the University of Alberta, and was legally approved by an exemption from Health Canada.
Rats were administered the drug approximately two hours before the lights went off in the animal colony, which is when feeding typically commences. Animals were free to consume as much of the regular rat food or high calorie diet as they wished. They were weighed each day prior to drug treatment, to determine how much weight had been gained in the previous 24 hours. The study administered the drug over five consecutive days. Data were statistically analyzed by (SPSS Version 24 software package) using a one-way Analysis of Variance (ANOVA) with a LSD-post hoc test to detect between-group differences.

[2] = tested on: compulsive eating disorder; experiment: Self-reported instances of compulsive eating over two months; conditions: once a day with breakfast for two months; compared to first two months without treatment
[3] = Weight loss in obese males, gel tabs on weekdays for 2 months; assay type: in vivo, human; conditions: 2.5 mg gel tab every morning on weekdays
Experimental: 12 males all weighing between 250 and 275 lbs and all having BMI indexes between 30 and 35 kg/m^2 are split into two groups. The first is provided with placebo gel tabs; the second with indistinguishable gel tabs containing 2.5 mg of purified synthetically produced psilocin in a pharmaceutically acceptable carrier. Both groups are instructed to take one gel tab every morning, before breakfast, on weekdays, with weekends off, for 2 months. At the end of the two months, the first (placebo) group is found to have a similar weight as before the treatment, whereas the treatment group loses an average of 12 lbs each.

Compound | reduction in weight gain vs control ([1]; 5 mg/kg once daily, 5 days) [%] | total weight gain over the 5 day period ([1]; 5 mg/kg once daily) [grams] | cumulative weight gain, day-by-day comparison with controls ([1]; 20 mg/kg) | relative weight gain, day-by-day comparison with controls ([1]; 20 mg/kg) | reduction in weight gain vs control ([1]; 20 mg/kg once daily, 5 days) [%] | total weight gain over the 5 day period ([1]; 20 mg/kg once daily) [grams] | decrease of weight gain (summary) ([1]; both doses of psilocybin) | total relative weight gain (relative to baseline weight) ([1]; both psilocybin groups (5 and 20 mg/kg), 5 days, controls 8.4%) [%] | decrease in relative weight gain vs controls ([1]; both psilocybin groups (5 and 20 mg/kg), 5 days, p=0.01) [%] | relative weight gain, day-by-day comparison with controls ([1]; both psilocybin groups (5 and 20 mg/kg), p<0.05) | weight gain per day ([1]; both psilocybin-treated groups (5 and 20 mg/kg once daily), control 5-8) | cumulative weight gain, day-by-day comparison with controls ([1]; both psilocybin-treated groups (5 and 20 mg/kg)) | self-reported instances of compulsive eating [2] | fasting glucose levels [3] | insulin resistance [3] | levels of hypertension [3] | lipid count in the blood stream [3] | average weight loss ([3]; males 250-275 lbs, BMI 30-35) [lbs]
CN(C)CCc1c[nH]c2cccc(OP(=O)(O)O)c12 [psilocybin] | 31 | 19.4 | significantly reduced weight gain compared to controls by Day 3 | gained statistically less relative weight by day 3 | 28 | 20.1 | approximately one third | 5.7 | 32 | gained less relative weight by day 4 | 1-8 grams per day | significantly decreased weight gain compared to controls | decrease in compulsive eating |  |  |  |  | 
CN(C)CCc1c[nH]c2cccc(O)c12 [psilocin, 4-hydroxy-N,N-dimethyltryptamine] |  |  |  |  |  |  |  |  |  |  |  |  |  | lower fasting glucose levels | decreased insulin resistance | lower levels of hypertension | lower lipid count in the blood stream | 12
